Patent publication US20240050342A1, “PROLIPID COMPOSITION FOR PERSONALIZED BENEFITS AND METHOD FOR USING THE SAME” (Conopco, Inc., d/b/a UNILEVER, priority 2020, published 2024)

What was measured:
human skin discards = test: Sphingosine/ceramide formation from deuterated palmitic acid in ex vivo human skin model (LC/MS/MS); assay type: cell-based
Protocol: In this experiment, a standard topical base composition was charged with 3% by weight deuterated d31palmitic acid and a second base was charged with 3% by weight deuterated d31palmitic acid in combination with 3% by weight 12-hydroxystearic acid. Both compositions were applied to separate human skin discards. Biopsies were taken, placed on collagen and incubated at 37° C. with about 5% carbon dioxide. Samples were harvested after 5 days, extracted, and fractionated to obtain ceramide fractions. Elongation of deuterated d31Palmitic acid (dC16:0) with and without the PPAR activator 12-hydroxystearic acid was investigated in an ex vivo human skin model. The ceramide fraction obtained was hydrolyzed to release deuterated sphingosine and analyzed via liquid chromatography/tandem mass-spectrometry (LC/MS/MS). This technique was used to identify and measure “precursor-to-product” ion transitions specific to deuterated sphingosine, and therefore, to track sphingosine formation from deuterated palmitic acid applied to skin discards. Unexpectedly, the amount of resulting deuterated sphingosine increased in the presence the PPAR activator. The numbers in units (“u”) provided depict the signal abundance of the biomolecules looked and accounted for in a sample as determined by LC/MS/MS. […]

[1] = test system: neonatal keratinocyte model; test: Elongation of deuterated d31-Palmitic acid with and without 12-hydroxystearic acid in neonatal keratinocyte model (LC/MS/MS); assay type: cell-based
Protocol: In this experiment the elongation of deuterated d31-Palmitic acid (dC16:0) with and without PPAR activator 12-hydroxystearic was investigated in a neonatal keratinocyte model. Keratinocytes were grown in an EpiLife™ medium (with calcium, from Thermo Fisher Scientific) in six well plate formats until confluency. Confluent keratinocytes were differentiated with CaCl2 treatment. The cells in wells deplete of PPAR activator were treated with the substrate: 1 uM of d31-Palmitic acid (dC16:0) every second or third day until harvested on day 7. The remainder of the samples were treated with 1 uM of the aforementioned dC16:0 and 12 hydroxystearic acid at the concentrations shown in the tables. Samples were extracted and analyzed via liquid chromatography/tandem mass-spectrometry (LC/MS/MS) for deuterated d31-Palmitic acid (dC16:0) elongation. Precursor-to-product ion transitions, specific to deuterated elongated fatty acids derived from d31-Palmitic acid, were identified and measured.

[2] = test system: EpiDerm in vitro 3D skin equivalents of keratinocytes; test: Elongation of deuterated d23-Lauric acid in EpiDerm 3D skin equivalents (LC/MS/MS); assay type: cell-based, human; conditions: for d23 C12:0 signal: lauric acid prior to elongation
Protocol: In this experiment, EpiDerm in vitro 3D skin equivalents of keratinocytes (commercially available from Matek) were used as a model system to investigate bioconversions in human skin. The skin equivalents were topically treated with deuterated d23-Lauric acid (dC12:0) in propylene glycol:ethanol (70:30), one time per day for seven days with concentrations in the range of 400 ng/cm^2 to 5000 ng/cm^2. Samples were harvested, extracted and analyzed via liquid chromatography/tandem mass-spectrometry (LC/MS/MS) for deuterated d23-Lauric acid elongation. Precursor-to-product (i.e., elongation) ion transitions, specific to deuterated elongated fatty acids derived from d23 Lauric acid, were identified and measured. The first column depicts the signal for lauric acid provided to the EpiDerm prior to elongation.

[3] = 12HSA 3 uM with 1 uM dC16:0, harvested day 7
[4] = 12HSA 10 uM with 1 uM dC16:0, harvested day 7
[5] = 12HSA 30 uM with 1 uM dC16:0, harvested day 7
[6] = 12HSA 100 uM with 1 uM dC16:0, harvested day 7
[7] = 400 ng/cm2, once per day for seven days
[8] = 1000 ng/cm2, once per day for seven days
[9] = 5000 ng/cm2 dC12:0, once per day for seven days
[10] = 1 uM d31-Palmitic acid, No 12 HSA, harvested day 7

Structure (SMILES): CCCCCCC(O)CCCCCCCCCCC(=O)O (stereo not shown) [12HSA, 12-hydroxystearic acid]
- amount of resulting deuterated sphingosine in the presence of the PPAR activator (human skin discards; 3% 12-hydroxystearic acid with 3% d31palmitic acid vs d31palmitic acid alone): increased
- dC16:0 signal [1, 3]: 486506 u
- dC18:0 signal [1, 3]: 710249 u
- dC20:0 signal [1, 3]: 11478 u
- dC22:0 signal [1, 3]: 94091 u
- dC24:0 signal [1, 3]: 294398 u
- dC26:0 signal [1, 3]: 60180 u
- dC16:0 signal [1, 4]: 503533 u
- dC18:0 signal [1, 4]: 713499 u
- dC20:0 signal [1, 4]: 13666 u
- dC22:0 signal [1, 4]: 98634 u
- dC24:0 signal [1, 4]: 306176 u
- dC26:0 signal [1, 4]: 62141 u
- dC16:0 signal [1, 5]: 921997 u
- dC18:0 signal [1, 5]: 792317 u
- dC20:0 signal [1, 5]: 18245 u
- dC22:0 signal [1, 5]: 131062 u
- dC24:0 signal [1, 5]: 470314 u
- dC26:0 signal [1, 5]: 109818 u
- dC16:0 signal [1, 6]: 677241 u
- dC18:0 signal [1, 6]: 750585 u
- dC20:0 signal [1, 6]: 75060 u
- dC22:0 signal [1, 6]: 201806 u
- dC24:0 signal [1, 6]: 774622 u
- dC26:0 signal [1, 6]: 219006 u
- effect on formation of elongated fatty acids from d31-Palmitic acid ([1]; compared to samples deplete of the activator): boosts and enhances the formation of elongated fatty acids from d31C16:0 to d31C26:0

Structure (SMILES): [2H]C([2H])([2H])C([2H])([2H])C([2H])([2H])C([2H])([2H])C([2H])([2H])C([2H])([2H])C([2H])([2H])C([2H])([2H])C([2H])([2H])C([2H])([2H])C([2H])([2H])C(=O)O [dC12:0, d23-Lauric acid]
- d23 C14:0 signal [2, 7]: 4670 u
- d23 C16:0 signal [2, 7]: 46204 u
- d23 C18:0 signal [2, 7]: 140851 u
- d23 C20 signal [2, 7]: 20848 u
- d23 C22:0 signal [2, 7]: 45885 u
- d23 C24:0 signal [2, 7]: 68863 u
- d23 C12:0 signal [2, 7]: 24559 u
- d23 C14:0 signal [2, 8]: 7481 u
- d23 C16:0 signal [2, 8]: 338885 u
- d23 C18:0 signal [2, 8]: 467624 u
- d23 C20 signal [2, 8]: 54050 u
- d23 C22:0 signal [2, 8]: 128640 u
- d23 C24:0 signal [2, 8]: 187974 u
- d23 C12:0 signal [2, 8]: 51904 u
- d23 C14:0 signal [2, 9]: 53655 u
- d23 C16:0 signal [2, 9]: 1026969 u
- d23 C18:0 signal [2, 9]: 1355969 u
- d23 C20 signal [2, 9]: 227595 u
- d23 C22:0 signal [2, 9]: 513274 u
- d23 C24:0 signal [2, 9]: 758093 u
- d23 C12:0 signal [2, 9]: 528578 u
- bioconversion/elongation of dC12:0 in skin equivalents ([2]; enzymes present in the skin equivalents): convert to dC16:0 via fatty acid synthase enzyme, followed by further elongation of dC16:0 to deuterated Lignoceric acid C24:0

Structure (SMILES): [2H]C([2H])([2H])C([2H])([2H])C([2H])([2H])C([2H])([2H])C([2H])([2H])C([2H])([2H])C([2H])([2H])C([2H])([2H])C([2H])([2H])C([2H])([2H])C([2H])([2H])C([2H])([2H])C([2H])([2H])C([2H])([2H])C([2H])([2H])C(=O)O [deuterated palmitic acid, d31-Palmitic acid]
- Deuterated Sphingosine signal abundance (human skin discards; hydrolyzed ceramide fraction, composition with 3% by weight of each ingredient applied to human skin discards, harvested after 5 days, 37° C.): 36,958 u
- dC16:0 signal [1, 10]: 646987 u
- dC18:0 signal [1, 10]: 663577 u
- dC20:0 signal [1, 10]: 11233 u
- dC22:0 signal [1, 10]: 90496 u
- dC24:0 signal [1, 10]: 278426 u
- dC26:0 signal [1, 10]: 60009 u
